Marks after values point to notes of the source that are not given here.
Key:
[1] = system: Gram-negative aerobic organisms isolated from patients with cUTI; test: Susceptibility testing of baseline cUTI isolates, CLSI broth microdilution (tazobactam fixed 4 μg/mL); type: cell-based; conditions: mMITT; ceftolozane/tazobactam breakpoint ≤8 mg/1, levofloxacin CLSI criteria
Method: 764 isolates of Gram-negative aerobic organisms were isolated from 800 patients in the microbiological modified intent-to-treat population (enrolled in 20 countries in Eastern Europe, North America, South America and 5 countries outside of these regions). Susceptibility (S) testing was performed with ceftolozane/tazobactam at a fixed 4 μg/mL of tazobactam and 10 antibiotic comparators using CLSI broth microdilution methods. ESBL enzymes were identified by PCR.

[2] = system: baseline uropathogens (complicated urinary tract infections); test: Phase 3 study of complicated urinary tract infections incl. pyelonephritis: composite cure / microbiological eradication at test-of-cure; type: in vivo, human; conditions: mMITT; patients with concurrent bacteremia
Excerpt: The primary efficacy endpoint was the composite microbiological and clinical cure response at the test-of-cure (TOC) visit in the microbiologically modified intent-to-treat (mMITT) population, which included all patients who received study medication and had at least 1 baseline uropathogen. The key secondary efficacy endpoint was the composite microbiological and clinical cure response at the TOC visit in the microbiologically evaluable (ME) population, which included protocol-adherent mMITT patients with a urine culture at the TOC visit.

clinical [3] = conditions: human, in vivo
Excerpt: The most common adverse reactions (≥5% in either indication) occurring in patients receiving CXA-201 were nausea, headache and diarrhea. Table 3 lists adverse reactions occurring in ≥1.0% of patients receiving CXA-201 in Phase 3 clinical trials.
The majority of adverse events were mild to moderate in severity, and the incidence of treatment-limiting adverse events was <2% in both treatment groups. Epidemiology and susceptibility of organisms isolated from patients with cUTI.

clinical [4] = conditions: human, in vivo; remark: listed apart in the source
Method: (§1) This was a Phase 1, multicenter, prospective, open-label study of 750 mg ceftolozane/tazobactam (as CXA-201) administered IV in male and female adult subjects with severe renal impairment (estimated CLCR<30 mL/min) and subjects with end-stage renal disease (ESRD) on hemodialysis (HD). The primary objective of the study was to determine the PK profile of ceftolozane/tazobactam in subjects with severe renal impairment and subjects with ESRD on HD and to determine the effect of HD on the clearance of ceftolozane/tazobactam.
(§2) Subjects with severe renal impairment received a single IV 1-hour infusion of 750 mg ceftolozane/tazobactam on Day 1. […] Subjects in this cohort received an IV dose of 750 mg ceftolozane/tazobactam as a 1 hour infusion immediately after their first HD session on Day 1 (post dialysis, approximately 72 hours prior to the next HD session) and a second dose of ceftolozane/tazobactam approximately 2 hours before their second HD session on Day 4 of the study. Infusion of ceftolozane/tazobactam was completed approximately 1 hour before the start of HD.
(§3) Subjects in both cohorts had urine (if not anuric) and plasma samples collected for determination of levels of ceftolozane, tazobactam and the M1 metabolite of tazobactam; subjects in the ESRD on HD cohort also had dialysate fluid samples collected for PK assessment. Plasma, urine, and dialysate levels of ceftolozane, tazobactam, and its metabolite M1 collected over a prespecified interval were determined by LC/MS/MS assay.
All subjects underwent hemodialysis for 3 to 4 hours using a high-flux membrane (either 1.4, 1.8, or 1.9 m^2) on Days 1, 4, and 6 as scheduled. Average blood flow rate was 264 to 600 mL/min and average dialysis flow rate was either 600 or 800 mL/min for all subjects with ESRD.
All cohorts received ceftolozane/tazobactam as an intravenous infusion over 1 h. The normal, mild, and moderate renal impairment cohorts received a single dose of ceftolozane/tazobactam 1,000 mg/500 mg; the severe renal impairment cohort received a single dose of ceftolozane/tazobactam 500 mg/250 mg; the ESRD cohort received a dose of ceftolozane/tazobactam 500 mg/250 mg initiated at the end of HD on day 1 and another dose initiated 2 h before HD on day 4. Subjects with ESRD underwent HD for 3 to 4 h using a high-flux membrane as scheduled; average dialysis flow rate was 600 to 800 ml/min. Revaclear hemodialyzers (Gambro, Stockholm, Sweden) were used in 5 subjects (ultrafiltration coefficient 50 to 60 ml/h/mmHg, high flux membrane of 1.4 to 1.8 m^2) and a CT 190G hemodialyzers (Baxter Healthcare, McGaw Park, Ill.) was used in 1 subject (ultrafiltration coefficient 36 ml/h/mmHg, high flux membrane of 1.9 m^2). The average blood flow rate was 400 to 600 ml/min with the exception of one subject with rates between 264 and 400 ml/min.
Plasma concentrations of ceftolozane and tazobactam were measured prior to, during, and following administration of ceftolozane/tazobactam. Blood samples were collected 30 min prior to administration, at the end of administration and at 5, 15, and 30 min and 1, 2, 3, 5, 7, 9, 11, 15, 25, and 35 h after completion of ceftolozane/tazobactam administration in the normal, mild, and moderate renal impairment cohorts. Severe renal impairment and ESRD cohorts off HD had samples taken 30 min prior to administration and at 0.5, 1, 1.5, 2, 3, 6, 9, 12, 24, 36, and 48 h after the start of administration. On the day of and following HD, the subjects with ESRD had samples taken 30 min prior to administration and at 0.5, 1, 1.5, 2, 3, 4, 5, 6, 9, 12, 24, 36, and 44 h after the start of the administration. The entire dialysate was collected at each of the following intervals: 0 to 1, 1 to 2, 2 to 3, and 3 h to the end of dialysis. Urine for PK analysis was obtained in the normal, mild, and moderate cohorts at 0 to 2, 2 to 4, 4 to 8, 8 to 12, 12 to 24, and 24 to 36 h after the start of ceftolozane/tazobactam administration.

clinical [5] = conditions: human, in vivo; remark: listed apart in the source
Method: This TQT study was a single-center, prospective, randomized, double-blind, double-dummy, placebo and active controlled, 4-way crossover study that evaluated a single therapeutic 1.5 g and a single supratherapeutic 4.5 g dose of ceftolozane/tazobactam compared with placebo. Moxifloxacin 400 mg, given orally, was used as a positive control. All subjects received study drug on 4 dosing days (Day 1, Day 5, Day 9, and Day 13) in a crossover fashion with a 3-day wash-out period between doses. Healthy men and women were randomized on a 1:1:1:1 basis to 1 of 4 dosing sequences.
Electrocardiograms were recorded (triplicate measurements) over 24 hours on Day 1, Day 5, Day 9, and Day 13 using a 12-lead Holter monitor. Blood samples for determination of ceftolozane, tazobactam, and the M1 metabolite of tazobactam levels were obtained at prespecified time intervals prior to and following each electrocardiogram (ECG) reading on dosing days. Plasma levels of ceftolozane, tazobactam, and its metabolite M1 were determined by LC/MS/MS assay.

clinical [6] = conditions: human, in vivo, 750 mg
Method: as §1, §2, §3

clinical [7] = conditions: human, in vivo; remark: listed apart in the source
Method: The extent of ceftolozane exposure increases with decreasing renal function. […] In subjects with moderate renal impairment, exposure approximately doubles relative to that in subjects with normal renal function.
For tazobactam, this estimated exposure from a dose of 125 mg in subjects with severe renal impairment not on hemodialysis is similar to that achieved with 500 mg tazobactam in subjects with normal renal function (23.8 μg·h/mL).

[8] = system: baseline intra-abdominal pathogens (complicated intra-abdominal infections); test: Phase 3 study of complicated intra-abdominal infections: clinical cure at test-of-cure; type: in vivo, human; conditions: ME population
Method: A total of 979 adults hospitalized with complicated intra-abdominal infections were randomized and received study medications in a multinational, double-blind study comparing CXA-201 (1.5 g IV every 8 hours) plus metronidazole (500 mg IV every 8 hours) to meropenem (1 g IV every 8 hours) for 4 to 14 days of therapy. Complicated intra-abdominal infections included appendicitis, cholecystitis, diverticulitis, gastric/duodenal perforation, perforation of the intestine, and other causes of intra-abdominal abscesses and peritonitis. The primary efficacy endpoint was clinical response at the test-of-cure (TOC) visit in the microbiological intent-to-treat (MITT) population, which included all patients who had at least 1 baseline intra-abdominal pathogen. The key secondary efficacy endpoint was clinical response at the TOC visit in the microbiologically evaluable (ME) population, which included all protocol-adherent MITT patients.

QT/QTc interval = type: in vivo, human; conditions: 400 mg orally, positive control
Excerpt: The primary objectives of the study were to evaluate the effect of a single IV supratherapeutic dose of ceftolozane/tazobactam on ventricular repolarization as measured by QTc interval in healthy subjects compared to baseline-adjusted, time-matched placebo and to evaluate the change from the period-specific predose baseline of QT/QTc interval corrected by QTcI (individual QT correction subject-specific formula) across all dose groups.

Which “gram-negative pathogens isolated at baseline that were susceptible” value [1] does the source give for `C[C@H]1COc2c(N3CCN(C)CC3)c(F)cc3c(=O)c(C(=O)O)cn1c23` [Levofloxacin, levofloxacin] here?
The value was 70.7%.

What about the composite cure rate [2] of the same molecule?
The composite cure rate was 57.6%.

What about the ALT increased (clinical [3]) of the same molecule?
The ALT increased was 5 (0.9).

What about the AST increased (clinical [3]) of the same molecule?
The AST increased was 5 (0.9).

What about the Abdominal pain (clinical [3]) of the same molecule?
The Abdominal pain was 2 (0.4).

And the “Adverse events occurred, patients” value (clinical [3])?
Its value is 34.4%.

And the Constipation (clinical [3])?
The Constipation was 17 (3.2).

What about the Diarrhea (clinical [3]) of the same molecule?
The Diarrhea was 23 (4.3).

And the Headache (clinical [3])?
The Headache was 26 (4.9).

And the Nausea (clinical [3])?
The Nausea was 9 (1.7).

What about the Vomiting (clinical [3]) of the same molecule?
The Vomiting was 6 (1.1).

What about the gastrointestinal symptoms (clinical [3]) of the same molecule?
Its gastrointestinal symptoms is 11.4%.

And the headache (clinical [3])?
The headache was 4.9%.

And the “incidence of treatment-limiting adverse events” value (clinical [3])?
The value was < 2%.

Which “AUC0-∞” value (clinical [4]) does the source give for `C[C@](Cn1ccnn1)([C@@H](N)C(=O)O)S(=O)O` [M1 Metabolite] here?
Its value is 31.0 (23.4-34.9) μg * hr/mL.

What about the “AUC48h Ratio (Day 3:1), median (range)” value (clinical [4]) of the same molecule?
The value was 0.49 (0.38-0.78).

And the AUC(0-t) (clinical [4])?
The AUC(0-t) was 26.8 (3.77-32.0) μg * hr/mL.

What about the “AUCt0-t1, median (range)” value (clinical [4]) of the same molecule?
The value was 27.5 (3.8-32.7) μg * hr/mL.

And the “Change in Concentration” value (clinical [4])?
The value was 9.1 (0.5-14.5).

What about the Clast (clinical [4]) of the same molecule?
Its Clast is 0.41 (0.26-1.11) μg/mL.

And the “Clast lower than Cmax” value (clinical [4])?
Its value is ~26 fold.

And the Cmax (clinical [4])?
The Cmax was 10.9 (1.26-15.7) μg/mL.

And the “Concentration after HD” value (clinical [4])?
Its value is 0.4 (0.3-1.1) μg/mL.

What about the “Concentration before HD” value (clinical [4]) of the same molecule?
The value was 9.4 (1.4-14.9) μg/mL.

And the “Half-Life, median (range)” value (clinical [4])?
Its value is 368.4^a hr.

And the “Percent Removed” value (clinical [4])?
The value was 93.4 (38.1-97.7) %.

And the “Percent Removed, median (range)” value (clinical [4])?
Its value is 51 (22-63).

What about the Tmax (clinical [4]) of the same molecule?
Its Tmax is 1.50 (0.50-1.50) hr.

What about the half-life (clinical [4]) of the same molecule?
The half-life was 1.80 (0.68-2.38) hr.

What about the “median RDHD (percent reduction in plasma concentration during HD)” value (clinical [4]) of the same molecule?
Its value is 93%.

And the “median dialysis clearance (CLD)” value (clinical [4])?
The value was 4.59 L/h.

What about the removed by dialysis (clinical [4]) of the same molecule?
The removed by dialysis was ~51%.

And the “t1/2 during the HD period (median)” value (clinical [4])?
The value was 1.80 h.

What about the Median tmax (clinical [5]) of the same molecule?
Its Median tmax is 3.7 h.

And the “AUClast, mean (CV %)” value (clinical [6])?
Its value is 53.7 (25) μg · h/mL.

What about the “AUC∞, mean (CV %)” value (clinical [6]) of the same molecule?
The value was 60.3 (30) μg · h/mL.

And the “t1/2, geometric mean” value (clinical [7])?
Its value is 6.67 h.

What does the source list for `C[C@@H](O)[C@H]1C(=O)N2C(C(=O)O)=C(S[C@@H]3CN[C@H](C(=O)N(C)C)C3)[C@H](C)[C@H]12` [Meropenem, meropenem]?
Per pathogen clinical cure rate ([8]; Aerobic Gram-negative): (93.8) %; Per pathogen clinical cure rate ([8]; Aerobic Gram-positive): (91.9) %; Per pathogen clinical cure rate ([8]; Anaerobic Gram-negative): (96.4) %; Per pathogen clinical cure rate ([8]; Bacteroides thetaiotaomicron): (93.0) %; Per pathogen clinical cure rate ([8]; Klebsiella pneumoniae (CTX-M-15 ESBL-producing)): (0) %; ALT increased (clinical [3]): 5 (1.0); AST increased (clinical [3]): 3 (0.6); Abdominal pain (clinical [3]): 2 (0.4); Constipation (clinical [3]): 6 (1.2); Diarrhea (clinical [3]): 25 (5.0); Headache (clinical [3]): 9 (1.8); Nausea (clinical [3]): 29 (5.8); Vomiting (clinical [3]): 20 (4.0)

Which “95% lower confidence bound on difference from baseline for QTcI vs placebo” value (QT/QTc interval) does the source give for `COc1c(N2C[C@@H]3CCCN[C@@H]3C2)c(F)cc2c(=O)c(C(=O)O)cn(C3CC3)c12` [moxifloxacin] here?
The value was “above 5 ms”.

Reference: patent publication US10933053B2, “Treating infections with ceftolozane/tazobactam in subjects having impaired renal function” (MERCK SHARP & DOHME CORP., priority 2013, dated 2021)
